The record followed here is patent US10428048B2, “Androgen receptor antagonists” (CITY OF HOPE, priority 2015, dated 2019).

One series deals with LNCaP cells. Put plainly: LNCaP prostate cancer cell growth (DAPI staining). The series is classed as cell-based, human. Particulars: for Inhibition of LNCaP cell growth in culture: AR-dependent LNCaP cells; for inhibition at 0.3 µM: Homo sapiens, LNCaP, read-out: LNCaP growth inhibition at 300 nM. How it is done: (§1) For growth curves, cells were transferred to charcoal-stripped media three days before they were split and plated at a density of approximately 20,000 cells/well in 48 well plates, in quadruplicate. The assay was repeated three times. The following day, medium with the indicated drugs was added to the cells. Proliferation was determined by measuring the DNA content of the cells in each well. Each day, the cells were fixed in 100% cold methanol, followed by staining for 5 min at RT with 0.2 ng/mL 4′,6-diamidino-2-phenylindole (DAPI) in PBS. The cells were washed with PBS, then read on a fluorescence plate reader (FPR) using 365/439 excitation/emission wavelengths. A student's T test was used to determine significant differences among populations.

The next series deals with 22Rv1 cells. In words: 22Rv1 cell growth in culture. Particulars: androgen-independent, AR splice variant expressing 22Rv1 cells; tosylate. The series is classed as cell-based, human. On the procedure: as §1
For another series, the system named is other nuclear receptors. In words: Specificity for AR versus other nuclear receptors. Particulars: P24 0.1, 0.3, 1 μM; P7 0.3, 1, 3 μM. The series is classed as cell-based.
A short description of series [1]: Solubility in solvents and formulations.
Series [2] can be described thus: Further PK studies, single dose, DMSO/PBS or BCD formulation. The note with it: blood at 0.5, 2 and 24-hrs; for Drug level in blood after administration, BCD formulation: 25 mg/kg single dose; for Drug level in blood after administration, DMSO/PBS formulation: 1 mg/kg single dose.
Text: Treatment: 1-2 mice with single dose and blood at 0.5, 2 and 24-hrs.
A short description of series [3]: Toxicity studies, MTD determination. The note with it: in vivo. On the procedure:
In DMSO/PBS formulation, with MTD single dose: IV: ˜1 mg/kg; PO (oral): not determined due to poor absorption; and IP: ˜5 mg/kg. With MTD daily dosing: IP: ˜1 mg/kg. In Beta cyclodextrin formulation: MTD single dose: IV: not determined; PO (oral); ˜200 mg/kg; IP: >10 mg/kg. In MTD daily dosing: IP: at least 5 mg/kg; PO: at least 100 mg/kg.

Series [4] deals with enzalutamide (enz)-resistant LNCaP cells. Put plainly: Enzalutamide-resistant LNCaP cell growth in culture. In kind it is cell-based, human.
Series [5] in a line: P24 microsomal analysis, human microsomes. The series is classed as in vitro ADME. How it is done: (§2) FIG. 16. P24 microsomal analysis.
(§3) As depicted in FIG. 16, the concentration of compound. P24 solution tested with incubation with microsomes.

Series [6] is described as follows: P24 microsomal analysis, mouse microsomes. The series is classed as in vitro ADME. On the procedure: as §2, §3
For another series, the system named is AR target genes. Put plainly: Inhibition of AR activity in vivo (qRT-PCR of prostate tissue). Details: species or system Mice. Particulars: 5 mg/kg via osmotic pump for 4 weeks. On the procedure:
Total RNA was isolated from homogenized prostate or tumor tissue using an RNAeasy kit (Qiagen). RNA was reverse-transcribed (MMLV-RT; Invitrogen), and the expression of androgen-regulated genes was assessed by qPCR using a StepOne Real Time PCR System (Applied Biosystems), using SYBR green (Invitrogen) as the detecting dye and Rox (Invitrogen) as the reference dye. Differences between treated (x) and no DHT control (y) samples were normalized to RPL19 transcript levels (i.e., androgen-unresponsive) and determined with the following calculation: (2[Ctxgene1−Ctygene1])/(2[CtxRPL19−CtyRPL19]).

Where [7] appears, read: ip, Beta cyclodextrin formulation, IP, daily dosing, read-out: MTD daily dosing IP.
Where [8] appears, read: ip, Beta cyclodextrin formulation, IP, single dose, read-out: MTD single dose IP.
Setting [9] is: ip, DMSO/PBS formulation, IP, daily dosing, read-out: MTD daily dosing IP.
[10] abbreviates: ip, DMSO/PBS formulation, IP, single dose, read-out: MTD single dose IP.
Where [11] appears, read: iv, DMSO/PBS formulation, IV, single dose, read-out: MTD single dose IV.
[12] abbreviates: po, Beta cyclodextrin formulation, PO, daily dosing, read-out: MTD daily dosing PO.
Where [13] appears, read: po, Beta cyclodextrin formulation, PO, single dose, read-out: MTD single dose PO (oral).
[14] abbreviates: 100 ng/ml P24, absence of NADPH.
Setting [15] is: 100 ng/ml P24, presence of NADPH.

The structures appear in SMILES notation. Entries after “also recorded” stand apart in the source; their conditions may differ. Structures can show the parent of a compound that is named as a salt. Where two headings read alike, the source gives them in different places.

One may read the inhibition as the share of the control response that was lost under treatment. As a reminder, the solubility is the concentration that dissolves in the medium under given conditions. Take `Cc1cc(/C=C/c2ccc3cc(N(C)C)ccc3[n+]2C)c(C)[nH]1.Cc1ccc(S(=O)(=O)[O-])cc1` [P7, (E)-6-Dimethylamino-2-(2-(2,5-dimethyl-1H-pyrrol-3-yl)ethenyl)-1-methylquinolinium tosylate]: the “Inhibition of LNCaP cell growth in culture” value in the series on LNCaP cells (tosylate) is reported as “inhibit the growth; also recorded: inhibited”. The inhibition at 0.3 µM with LNCaP cells was 100%. In addition, the “Inhibition of 22Rv1 cell growth in culture” value with 22Rv1 cells is “inhibit the growth; also recorded: inhibited”. Also, the “Activity against other nuclear receptors” value in the series on other nuclear receptors is “little activity”. Besides, the solubility in [1] (DMSO, organic solvent or mixture) was roughly 10000 µg/mL; in series [1] (acetonitrile, organic solvent or mixture) it was less than 5000 µg/mL; in [1] (beta cyclodextrin, aqueous with cosolvent or surfactant or cyclodextrin), roughly 5000 µg/mL; in series [1] (buffer B (aqueous), aqueous buffer) it was less than 5000 µg/mL; in series [1] (ethanol, organic solvent or mixture), roughly 5000 µg/mL; in series [1] (gamma cyclodextrin, aqueous with cosolvent or surfactant or cyclodextrin), roughly 5000 µg/mL. Moreover, in series [2], the “Drug level in blood after administration, BCD formulation” value was “more continuous peak”. For the same compound, the “Drug level in blood after administration, DMSO/PBS formulation” value in [2] is on record as “almost no drug”. The MTD in [3] (setting [7]) is no less than 5 mg/kg; in series [3] (setting [8]), greater than 10 mg/kg; in series [3] (setting [9]), roughly 1 mg/kg; in [3] (setting [10]) it was roughly 5 mg/kg; in series [3] (setting [11]), roughly 1 mg/kg; in series [3] (setting [12]) it was no less than 100 mg/kg. Further, in series [3] (setting [13]), the MTD was roughly 200 mg/kg. Further, the “Inhibition of growth of enzalutamide-resistant LNCaP cells” value in [4] is on record as “inhibit the growth”.
Consider `Cc1cccnc1-n1c(C)cc(/C=C/c2ccc3cc(N(C)C)ccc3[n+]2C)c1C` [P24, (E)-6-Dimethylamino-2-(2-(2,5-dimethyl-1-(3-methylpyridin-2-yl)-1H-pyrrol-3-yl)ethenyl)-1-methylquinolinium tosylate], for which the “Breakdown in microsomes without NADPH (chemical stability)” value in [5] (setting [14]) and in series [6] (setting [14]) was “lack of breakdown” throughout. Besides, the “Metabolism in microsomes, NADPH dependence” value in series [5] (setting [15]) and in [6] (setting [15]) was “NADPH dependent” throughout. Also, the “Inhibition of LNCaP cell growth in culture” value with LNCaP cells (tosylate) is reported as “inhibit the growth; also recorded: inhibited”. In the series on LNCaP cells, the inhibition at 0.3 µM was found to be 100%. In addition, in the series on 22Rv1 cells, the “Inhibition of 22Rv1 cell growth in culture” value is “inhibit the growth; also recorded: inhibited”. Moreover, the “Inhibition of AR target genes in prostate tissue (qRT-PCR)” value with AR target genes was “inhibition of AR target genes”. Moreover, the “Activity against other nuclear receptors” value in the series on other nuclear receptors is “little activity”. Also, the “Drug level in blood after administration, BCD formulation” value in series [2] is “significant spike”. The “Drug level in blood after administration, DMSO/PBS formulation” value in [2] is reported as “almost no drug”. Moreover, the MTD in [3] (setting [7]) is no less than 5 mg/kg; in [3] (setting [8]) it was greater than 10 mg/kg; in [3] (setting [9]), roughly 1 mg/kg; in series [3] (setting [10]), roughly 5 mg/kg; in series [3] (setting [11]) it was roughly 1 mg/kg; in series [3] (setting [12]), no less than 100 mg/kg. Further, the MTD in series [3] (setting [13]) is roughly 200 mg/kg. For the same compound, the “Inhibition of growth of enzalutamide-resistant LNCaP cells” value in series [4] is on record as “inhibit the growth”.
For the compound `CNC(=O)c1ccc(N2C(=S)N(c3ccc(C#N)c(C(F)(F)F)c3)C(=O)C2(C)C)cc1F` [enzalutamide, reference compound], in the series on LNCaP cells, the “Inhibition of LNCaP cell growth in culture” value is recorded as “inhibited”.
